A value given as a limit tells only on which side of the number the result lay.

A word on the melting point: it is the temperature of the solid-liquid transition.

One data set concerns the target T1, human H4 receptor (Homo sapiens, UniProt Q9H3N8).
T1 construct: expressed in transfected cells
In words: [3H]Histamine binding on membranes of CHO cells stably expressing human H4 receptor. Summed up:
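First, thawed CHO membranes carrying human H4 were diluted to 20 μg protein per well in pH 7.4 Tris/EDTA buffer. Next, incubation was ended by rapid filtration through PEI-treated GF/B filters followed by cold rinses. Finally, retained radioactivity was counted; 10 μM JNJ 7777120 marked nonspecific binding.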

T1 sequence (Q9H3N8 whole entry): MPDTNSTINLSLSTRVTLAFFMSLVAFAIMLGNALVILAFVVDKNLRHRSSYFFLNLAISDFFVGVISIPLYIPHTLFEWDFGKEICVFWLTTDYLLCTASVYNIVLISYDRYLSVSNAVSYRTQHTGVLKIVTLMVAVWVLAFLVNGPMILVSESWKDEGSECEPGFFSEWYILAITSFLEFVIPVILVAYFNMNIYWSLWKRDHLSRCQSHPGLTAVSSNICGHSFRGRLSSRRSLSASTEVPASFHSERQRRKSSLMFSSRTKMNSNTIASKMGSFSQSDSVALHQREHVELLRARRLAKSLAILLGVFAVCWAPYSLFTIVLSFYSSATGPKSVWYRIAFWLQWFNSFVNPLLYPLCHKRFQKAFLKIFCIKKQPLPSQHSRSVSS

Turning to `CN1CCC(OC(c2cccc(OCc3ccccn3)c2)c2nc3ccccc3[nH]2)CC1` (stereo not shown) [Example 310, 2-{(1-methylpiperidin-4-yloxy)[3-(pyridin-2-ylmethoxy)phenyl]methyl}-1H-benzimidazole], the melting point is 77 °C. In addition, at human H4 receptor, the Ki or IC50 activity class is under 300 nM.

In the case of `CN1CCC(OC(c2cccc(C#CCCCN)c2)c2nc3ccccc3[nH]2)CC1` (single isomer, unassigned) [Example 566, 5-{3-[(1H-benzimidazol-2-yl)(1-methylpiperidin-4-yloxy)methyl]phenyl}pent-4-ynylamine], the melting point came out at 82 °C. This compound also gave a Ki or IC50 activity class at human H4 receptor of under 30 nM.

On to `CSc1cccc(C(NC2CCN(C)CC2)c2nc3ccccc3[nH]2)c1` (stereo not shown) [Example 75, [(1H-benzimidazol-2-yl)(3-methylsulfanylphenyl)methyl](1-methylpiperidin-4-yl)amine], for which the melting point came out at 166 °C. The compound further yielded a Ki or IC50 activity class on human H4 receptor of under 30 nM.

The compound `CN1CCC(OC(c2nc3ccccc3[nH]2)c2cc(OCCF)ccc2O)CC1` (stereo not shown) [Example 605] came in with a melting point of 222 °C. Besides, the Ki or IC50 activity class at human H4 receptor was under 30 nM.

In turn, `CN1CCC(OC(c2cccc(OCCCCN3CCN(C(=O)OC(C)(C)C)CC3)c2)c2nc3ccccc3[nH]2)CC1` (stereo not shown) [Example 343, 4-(4-{3-[(1H-benzimidazol-2-yl)(1-methylpiperidin-4-yloxy)methyl]phenoxy}butyl)piperazine-1-carboxylic acid tert-butyl ester] had a melting point of 64 °C. The compound further showed a Ki or IC50 activity class at human H4 receptor of under 300 nM.

Consider `Cc1cc(C(OC2CCN(C)CC2)c2nc3ccccc3[nH]2)c(O)c(F)c1C` (stereo not shown) [Example 622], for which the melting point came out at 163 °C. The Ki or IC50 activity class on human H4 receptor was under 300 nM.

As for `CN1CCC(OC(c2cccc(SCc3ccccc3)c2)c2nc3ccccc3s2)CC1` (stereo not shown) [Example 148, 2-[(3-benzylsulfanylphenyl)(1-methylpiperidin-4-yloxy)methyl]benzothiazole], the melting point amounted to 195 °C. Further, the Ki or IC50 activity class on human H4 receptor was under 300 nM.

The compound `CN1CCC(OC(c2nc3ccccc3[nH]2)c2cc(C(F)(F)F)ccc2O)CC1` (stereo not shown) [Example 598] yielded a melting point of 135 °C. Further, on human H4 receptor, the Ki or IC50 activity class was under 300 nM.

Consider `CN1CCC(OC(c2nc3ccccc3[nH]2)c2cc(Cl)cc(F)c2O)CC1` (stereo not shown) [Example 599], for which the melting point was found to be 146 °C. The compound also had a Ki or IC50 activity class at human H4 receptor of under 300 nM.

In turn, `CCOc1ccc(F)c(C(OC2CCN(C)CC2)c2nc3ccccc3[nH]2)c1F` (stereo not shown) [Example 535] gave a melting point of 130 °C. The compound also registered a Ki or IC50 activity class at human H4 receptor of under 300 nM.

Compound `COc1ccc(-c2cccc(C(OC3CCN(C)CC3)c3nc4ccccc4[nH]3)c2)cc1` (stereo not shown) [Example 183, 2-[(4′-methoxybiphenyl-3-yl)(1-methylpiperidin-4-yloxy)methyl]-1H-benzimidazole] registered a melting point of 92 °C. Moreover, the Ki or IC50 activity class on human H4 receptor was under 300 nM.

In turn, `COc1cc(F)cc(C(OC2CCN(C)CC2)c2nc3ccccc3[nH]2)c1O` (stereo not shown) [Example 610] showed a melting point of 108 °C. This compound also had a Ki or IC50 activity class at human H4 receptor of under 1000 nM.

For `CCSc1ccc(O)c(C(OC2CCN(C)CC2)c2nc3ccccc3[nH]2)c1` (stereo not shown) [Example 588], the melting point came out at 116 °C. Also, on human H4 receptor, the Ki or IC50 activity class was under 30 nM.

The compound `CN1CCC(OC(c2ccccc2)c2nc3ccccc3[nH]2)C1` (stereo not shown) [Example 272, 2-[(1-methylpyrrolidin-3-yloxy)phenyl-methyl]-1H-benzimidazole] gave a melting point of 53 °C. The Ki or IC50 activity class on human H4 receptor is under 1000 nM.

The compound `Cc1ccc(O)c(C(OC2CCN(C)CC2)c2nc3ccccc3[nH]2)c1` (stereo not shown) [Example 578, 2-[(1H-benzimidazol-2-yl)(1-methylpiperidin-4-yloxy)methyl]-4-methylphenol] had a melting point of 151 °C. Moreover, on human H4 receptor, the Ki or IC50 activity class was under 30 nM.

The compound `Cc1ccc(C(OC2CCN(C)CC2)c2nc3ccccc3[nH]2)c(C)c1` (stereo not shown) [Example 541] registered a melting point of 120 °C. This compound also had a Ki or IC50 activity class on human H4 receptor of under 30 nM.

Turning to `CN1CCC(OC(c2nc3ccccc3[nH]2)c2ccc(C(F)(F)F)cc2O)CC1` (stereo not shown) [Example 617], the melting point was determined as 144 °C. Further, the Ki or IC50 activity class at human H4 receptor is under 30 nM.

`CN1CCC(OC(c2nc3ccccc3[nH]2)c2cc(F)ccc2O)CC1` (stereo not shown) [Example 572]: the melting point came out at 142 °C. This compound also came in with a Ki or IC50 activity class on human H4 receptor of under 30 nM.

For `Cc1cc(O)c(C(OC2CCN(C)CC2)c2nc3ccccc3[nH]2)cc1C` (stereo not shown) [Example 611], the melting point was 139 °C. The compound further displayed a Ki or IC50 activity class at human H4 receptor of under 30 nM.

`Cc1cc(F)c(O)c(C(OC2CCN(C)CC2)c2nc3ccccc3[nH]2)c1` (stereo not shown) [Example 595] returned a melting point of 144 °C. In addition, on human H4 receptor, the Ki or IC50 activity class was under 300 nM.

Consider `COc1ccc(-c2cccc(C(NC3CCN(C)CC3)c3nc4ccccc4[nH]3)c2)cc1` (stereo not shown) [Example 222, [(1H-benzimidazol-2-yl)(4′-methoxy-biphenyl-3-yl)methyl](1-methylpiperidin-4-yl)amine], for which the melting point is 110 °C. This compound displayed a Ki or IC50 activity class at human H4 receptor of under 300 nM.

As to `CN1CCC(OC(c2cccc(-c3ccc(NC(=O)OC(C)(C)C)cc3)c2)c2nc3ccccc3[nH]2)CC1` (stereo not shown) [Example 138, {3′-[(1H-benzimidazol-2-yl)(1-methylpiperidin-4-yloxy)methyl]biphenyl-4-yl}carbamic acid tert-butyl ester], the melting point was 135 °C. For the same compound, the Ki or IC50 activity class at human H4 receptor is under 300 nM.

Consider `CN1CCC(COC(c2cccc(Br)c2)c2nc3ccccc3[nH]2)C1` (stereo not shown) [Example 414, 2-[(3-bromo-phenyl)(1-methylpyrrolidin-3-ylmethoxy)methyl]-1H-benzimidazole], for which the melting point was 61 °C. The compound also returned a Ki or IC50 activity class on human H4 receptor of under 300 nM.

For the compound `CN1CCC(NC(c2cccc(OCCCC(F)(F)F)c2)c2nc3ccccc3[nH]2)CC1` (stereo not shown) [Example 175, {(1H-benzimidazol-2-yl)[3-(4,4,4-trifluoro-butoxy)phenyl]methyl}(1-methylpiperidin-4-yl)amine], the melting point worked out at 94 °C. In addition, the Ki or IC50 activity class on human H4 receptor is under 300 nM.

Turning to `CN1CCC(OC(c2cccc(C#CCN)c2)c2nc3ccccc3[nH]2)CC1` (stereo not shown) [Example 194, 3-{3-[(1H-benzimidazol-2-yl)(1-methylpiperidin-4-yloxy)methyl]phenyl}prop-2-ynylamine], the melting point turned out to be 101 °C. The same compound displayed a Ki or IC50 activity class on human H4 receptor of under 300 nM.

In turn, `COc1ccc(F)c(C(OC2CCN(C)CC2)c2nc3ccccc3[nH]2)c1F` (stereo not shown) [Example 534, 2-[(2,6-difluoro-3-methoxyphenyl)(1-methylpiperidin-4-yloxy)methyl]-1H-benzimidazole] returned a melting point of 185 °C. On human H4 receptor, this compound showed a Ki or IC50 activity class of under 300 nM.

`CN1CCC(OC(c2cccc(I)c2)c2nc3ccccc3[nH]2)CC1` (stereo not shown) [Example 51, 2-[(3-iodophenyl)(1-methylpiperidin-4-yloxy)methyl]-1H-benzimidazole] gave a melting point of 173.5 °C. The Ki or IC50 activity class at human H4 receptor is under 30 nM.

For `CN1CCC(OC(c2ccccc2)c2nc3cc(Cl)c(Cl)cc3[nH]2)CC1` (stereo not shown) [Example 165, 5,6-dichloro-2-[(1-methylpiperidin-4-yloxy)phenylmethyl]-1H-benzimidazole], the melting point is 221 °C. Besides, the Ki or IC50 activity class on human H4 receptor is under 300 nM.

`CN1CCC(OC(c2cccc(C#CC3CCCNC3)c2)c2nc3ccccc3[nH]2)CC1` (stereo not shown) [Example 380, 2-[(1-methylpiperidin-4-yloxy)(3-piperidin-3-ylethynylphenyl)methyl]-1H-benzimidazole] came in with a melting point of 97 °C. Also, the Ki or IC50 activity class at human H4 receptor was under 300 nM.

For `CN1CCC(OC(c2nc3ccccc3[nH]2)c2cc(C(C)(C)C)ccc2O)CC1` (stereo not shown) [Example 590], the melting point was 139 °C. The compound further returned a Ki or IC50 activity class at human H4 receptor of under 1000 nM.

For the compound `CN1CCC(OC(c2cccc(C#CCCO)c2)c2nc3ccccc3[nH]2)CC1` (stereo not shown) [Example 191, 4-{3-[(1H-benzimidazol-2-yl)(1-methylpiperidin-4-yloxy)methyl]phenyl}but-3-yn-1-ol], the melting point fell in the range of 104 to 108 °C. The same compound returned a Ki or IC50 activity class at human H4 receptor of under 300 nM.

With `Cc1ccc(C(OC2CCN(C)CC2)c2nc3cc(F)ccc3[nH]2)c(F)c1` (stereo not shown) [Example 548], the melting point stood at 90 °C. The compound also had a Ki or IC50 activity class at human H4 receptor of under 30 nM.

`CN1CCC(OC(c2cccc(C#CCCCO)c2)c2nc3ccccc3[nH]2)CC1` (stereo not shown) [Example 192, 5-{3-[(1H-benzimidazol-2-yl)(1-methylpiperidin-4-yloxy)methyl]phenyl}pent-4-yn-1-ol] gave a melting point of 85 °C. In addition, the Ki or IC50 activity class at human H4 receptor was under 300 nM.

For the compound `CN1CCC(OC(c2cccc(C#CCCCN)c2)c2nc3ccccc3[nH]2)CC1` (single isomer, unassigned) [Example 565, 5-{3-[(1H-benzimidazol-2-yl)(1-methylpiperidin-4-yloxy)methyl]phenyl}pent-4-ynylamine], the melting point stood at 84 °C. The Ki or IC50 activity class on human H4 receptor was under 300 nM.

`Cc1ccc(C(NC2CCN(C)CC2)c2nc3ccccc3[nH]2)cc1` (stereo not shown) [Example 273, [(1H-benzimidazol-2-yl)-p-tolyl-methyl](1-methylpiperidin-4-yl)amine] came in with a melting point of 183 °C. The Ki or IC50 activity class at human H4 receptor is under 1000 nM.

On to `Cc1ccc(C(OC2CCN(C)CC2)c2nc3ccccc3[nH]2)cc1Br` (stereo not shown) [Example 261, 2-[(3-bromo-4-methylphenyl)(1-methylpiperidin-4-yloxy)methyl]-1H-benzimidazole], for which the melting point is 92 °C. Also, the Ki or IC50 activity class on human H4 receptor is under 300 nM.

Take `CN1CCC(NC(c2cccc(OCC3CCCCC3)c2)c2nc3ccccc3[nH]2)CC1` (stereo not shown) [Example 73, [(1H-benzimidazol-2-yl)(3-cyclohexylmethoxyphenyl)methyl](1-methylpiperidin-4-yl)amine]: the melting point stood at 88 °C. In addition, the Ki or IC50 activity class on human H4 receptor was under 300 nM.

`CN1CCC(OC(c2nc3ccccc3[nH]2)c2cccc3cc[nH]c23)CC1` (stereo not shown) [Example 577] yielded a melting point of 110 °C. This compound came in with a Ki or IC50 activity class on human H4 receptor of under 300 nM.

The record behind these values is patent US8802664B2 (Bioproject, priority 2010, dated 2014).
